From publication PMC10486429, “Investigations Using Albumin Binders to Modify the Tissue Distribution Profile of Radiopharmaceuticals Exemplified with Folate Radioconjugates” (Cancers, 2023)

System: KB tumor-bearing athymic nude mice
Test: Biodistribution of 177Lu-RedFols in KB tumor-bearing mice
Assay type: in vivo, mouse
Protocol: Athymic nude mice (Crl:CD1-Foxn^nu) were kept on a folate-deficient rodent diet (ssniff Spezialdiäten GmbH, Soest, Germany) for at least one week prior to inoculation with the tumor cells. Biodistribution studies were performed approx. two weeks after subcutaneous inoculation with KB tumor cells (5 × 10^6 in 100 μL PBS) (Supplementary Materials Section S12). […] Data were presented as the average ± SD of n = 3−4 mice.
Purpose: Biodistribution studies were performed in KB tumor-bearing athymic nude mice (Crl:CD1-Foxnnu) in order to investigate the tissue distribution profiles of the novel radioconjugates. The aim was to compare the impact of the two different albumin binders (4-(p-iodophenyl)butanoate unit vs. 5-(p-iodophenyl)pentanoate unit), and that of the in-corporation of an AMBA linker adjacent to the albumin binder on the distribution profile of the resulting folate radioconjugates.
Methods: The methods are described in the main article. The mice were sacrificed at […]

Structure (SMILES): CN1c2c(nc(N)[nH]c2=O)NCC1CNc1ccc(C(=O)NC(CCC(=O)NC(CCCCNC(=O)CN2CCN(CC(=O)[O-])CCN(CC(=O)[O-])CCN(CC(=O)[O-])CC2)C(=O)NC(CCCCNC(=O)c2ccc(CNC(=O)CCCc3ccc(I)cc3)cc2)C(=O)O)C(=O)O)cc1.[177Lu+3] (stereo not drawn) [[^177Lu]Lu-6S-RedFol-3]
- Blood, accumulated activity (1 h p.i.): 22 ± 1 % IA/g
- Bone, accumulated activity (1 h p.i.): 1.9 ± 0.1 % IA/g
- Intestines, accumulated activity (1 h p.i.): 2.3 ± 0.8 % IA/g
- KB tumor, accumulated activity (1 h p.i.): 7.9 ± 1.2 % IA/g
- Kidneys, accumulated activity (1 h p.i.): 12 ± 1 % IA/g
- Liver, accumulated activity (1 h p.i.): 3.7 ± 0.2 % IA/g
- Lung, accumulated activity (1 h p.i.): 9.3 ± 1.7 % IA/g
- Muscle, accumulated activity (1 h p.i.): 1.4 ± 0.1 % IA/g
- Salivary glands, accumulated activity (1 h p.i.): 4.1 ± 0.3 % IA/g
- Spleen, accumulated activity (1 h p.i.): 2.4 ± 0.2 % IA/g
- Stomach, accumulated activity (1 h p.i.): 1.8 ± 0.2 % IA/g
- Tumor-to-blood ratio (1 h p.i.): 0.36 ± 0.06
- Tumor-to-kidney ratio (1 h p.i.): 0.66 ± 0.09
- Tumor-to-liver ratio (1 h p.i.): 2.1 ± 0.4
- Blood, accumulated activity (4 h p.i.): 14 ± 1 % IA/g
- Bone, accumulated activity (4 h p.i.): 1.8 ± 0.1 % IA/g
- Intestines, accumulated activity (4 h p.i.): 1.7 ± 0.4 % IA/g
- KB tumor, accumulated activity (4 h p.i.): 16 ± 1 % IA/g
- Kidneys, accumulated activity (4 h p.i.): 11 ± 2 % IA/g
- Liver, accumulated activity (4 h p.i.): 2.4 ± 0.2 % IA/g
- Lung, accumulated activity (4 h p.i.): 7.7 ± 2.6 % IA/g
- Muscle, accumulated activity (4 h p.i.): 1.2 ± 0.2 % IA/g
- Salivary glands, accumulated activity (4 h p.i.): 2.8 ± 0.4 % IA/g
- Spleen, accumulated activity (4 h p.i.): 1.7 ± 0.2 % IA/g
- Stomach, accumulated activity (4 h p.i.): 1.3 ± 0.1 % IA/g
- Tumor-to-blood ratio (4 h p.i.): 1.1 ± 0.1
- Tumor-to-kidney ratio (4 h p.i.): 1.4 ± 0.2
- Tumor-to-liver ratio (4 h p.i.): 6.5 ± 0.2
- Blood, accumulated activity (24 h p.i.): 8.7 ± 1.1 % IA/g
- Bone, accumulated activity (24 h p.i.): 1.2 ± 0.2 % IA/g
- Intestines, accumulated activity (24 h p.i.): 1.0 ± 0.1 % IA/g
- KB tumor, accumulated activity (24 h p.i.): 41 ± 2 % IA/g
- Kidneys, accumulated activity (24 h p.i.): 30 ± 1 % IA/g
- Liver, accumulated activity (24 h p.i.): 1.8 ± 0.4 % IA/g
- Lung, accumulated activity (24 h p.i.): 4.8 ± 0.7 % IA/g
- Muscle, accumulated activity (24 h p.i.): 1.0 ± 0.2 % IA/g
- Salivary glands, accumulated activity (24 h p.i.): 2.3 ± 0.4 % IA/g
- Spleen, accumulated activity (24 h p.i.): 2.3 ± 0.1 % IA/g
- Stomach, accumulated activity (24 h p.i.): 1.1 ± 0.1 % IA/g
- Tumor-to-blood ratio (24 h p.i.): 4.7 ± 0.3
- Tumor-to-kidney ratio (24 h p.i.): 1.3 ± 0.1
- Tumor-to-liver ratio (24 h p.i.): 24 ± 4
